Source: patent publication US12708676B2, “Phosphate compounds for detecting neurological disorders” (Amydis, Inc., priority 2018, dated 2026)
Values after ≈ are worked out from the molar mass of the structure shown. Read-outs that look alike come from different tables or passages of the source.

How the values were obtained:
[1] = Rabbit pharmacokinetics of Compound 9, Study 2 (retina, brain, blood/plasma); format: in vivo
Experimental: (§1) Compound 9 was injected into rabbits as a solution in 0.1 M phosphate buffer, pH 7.4 such that rabbits received either 30 mg of Compound 9 (Study 1) or 28 mg of Compound 9 (Study 2). The purpose of these studies was to confirm that Compound 9 could easily be converted into Compound 7 in vivo.
Study 2: The purpose of this study was to determine if higher concentrations of Compound 9 and/or Compound 7 was present at earlier time points in the tissues specified. Rabbits received a 1.4 mL injection of a 20 mg/mL solution of Compound 9 in 0.1 M phosphate buffer, pH 7.4. Blood was collected from rabbits (N=6) two minutes after receiving Compound 9 to determine the blood concentration at this time point (Table 8). Rabbits were then sacrificed at the specified time points (N=3 per time point) in the tables below and the average concentrations of Compound 9 and Compound 7 were determined in the retina (Table 6), brain (Table 7) and blood (Table 8).

[2] = Solubility of Compound 9 / phosphate prodrugs; format: physicochemical; conditions: aqueous buffer; phosphate buffer at pH 7.4
Description: Due to the poor water solubility and the large particle size of compounds such as Compound 7, prodrug derivatives of these compounds were investigated.

Aβ = assay: Example 4: detection of Aβ in the retina of a TBI (blast) mouse model; format: in vivo; conditions: blast model mice 24 hours after injury, Compound 9 intravenously; example in present tense
Experimental: This example is conducted to determine whether Compound 9 detects Aβ in the retina of a TBI mouse model.
Blast model mice 24 hours after injury and a non-injured mouse are administered Compound 9 intravenously. Mice retinas are scanned by scanning laser ophthalmoscopy (SLO).
Alternatively, or in addition to retinal scanning, retinal tissues are removed and stained with an anti-Aβ antibody (6E10).

[3] = Rabbit pharmacokinetics of Compound 9, Study 1 (retina, brain, blood); format: in vivo; conditions: other: injection (site not specified), Study 1, 30 mg Compound 9 injected
Experimental: as §1
Study 1: Rabbits received a 1.5 mL injection of a 20 mg/mL solution of Compound 9 in 0.1 M phosphate buffer, pH 7.4. Rabbits were sacrificed at the specified time points (N=3 per time point) in the tables below and the average concentration of Compound 9 and Compound 7 was determined in the retina (Table 3), brain (Table 4) and blood (Table 5).

[4] = tested on: hyperphosphorylated three repeat tau protein; assay: Example 3: retinal fluorescent imaging of model mice after intravenous Compound 9; parameters: species or system mouse; conditions: Compound 9 intravenously, retinas imaged ex vivo, example in present tense
Experimental: Model mice having a detectable target protein, for example, an amyloid beta protein, or a phosphorylated tau protein, or an accumulated mass thereof, are administered Compound 9 intravenously. Retinas of the mice are removed and are mounted on slides. The retinas are washed with PBS 2 times for 5 minutes. A solution of 98% formic acid is added—5 minutes for antigen retrieval. The sampled are washed with distilled water—2 times for 5 minutes. The samples are equilibrated in 1×PBS for 15 minutes, then blocked with 10% goat/donkey serum in 1× PB ST (depending on antibodies) for 1 hour. Samples are covered in foil, and washed with 1× PBS 3 times for 5 minutes each. Samples are stained with DAPI (300 nM or 100 ng/mL) in dark for 10 minutes, then tissues are washed 3×10 minutes with PBS. Antifade DAKO mounting medium is added, and coverslip and kept under foil until imaging.
Fluorescent imaging study of the samples is conducted on a Leica DMI 4000B microscope (Leica, Germany) equipped with a TCS SPE camera and Leica 10, 20 and 40× objectives. The following lasers are used to visualize fluorescent probes pertaining to DAPI (blue, nuclear stain), Compound 7 (green) and hyperphosphorylated tau (red): 408, 488 and 568 nm. Z-stacked images are taken at 40× at 0.5 μm increments to visualize the entire thickness of the tissue.

`N#C/C(=C\c1ccc2cc(N3CCCCC3)ccc2c1)C(=O)NCCOCCOCCOP(=O)(O)O` [Compound 9] gave a concentration at 5 min ([1]; brain, other: injection (site or type of injection not stated), rabbit, Study 2, 28 mg Compound 9 injected, 5 min, read-out: Avg Conc., brain) of 7.2 ± 2.62 ng/g, a concentration at 10 min ([1]; brain, other: injection (site or type of injection not stated), rabbit, Study 2, 28 mg Compound 9 injected, read-out: Avg Conc., brain) of 2.23 ± 0.426 ng/g and a Kp ([1]; brain, rabbit, after injection of Compound 9) of under 0.001. The “Conversion of Compound 9 to Compound 7 in vivo” value ([1]; healthy rabbit model) was “rapidly converted to Compound 7”, the concentration at 2 min ([1]; plasma, other: injection (site not specified), rabbit, Study 2, 28 mg Compound 9 injected, 2 min, read-out: Avg Conc., plasma) was 67600 ± 18800 ng/mL and the concentration at 5 min ([1]; plasma, other: injection (site not specified), rabbit, Study 2, 28 mg Compound 9 injected, 5 min, read-out: Avg Conc., plasma) was 40000 ± 11800 ng/mL. For the same compound, the concentration at 10 min ([1]; plasma, other: injection (site not specified), rabbit, Study 2, 28 mg Compound 9 injected, read-out: Avg Conc., plasma) was 8860 ± 1310 ng/mL, the “Avg Conc., retina” value ([1]; rabbit, Study 2, 28 mg Compound 9 injected, 5 min) was “remained undetectable” and the Adverse reactions ([1]; rabbits, during the time course of the study) was “no adverse reactions were noted”. The solubility [2] was 20 to 30 mg/mL (≈ 38.6 to 58 mM), the “Scanning laser ophthalmoscopy image of retina” value (Aβ) was “showing the presence of Aβ plaques” and the concentration at 15 min ([3]; blood, read-out: Avg Conc., blood) was 5440 ± 767 ng/mL. For the same compound, the concentration at 30 min ([3]; blood, 30 min, read-out: Avg Conc., blood) was 374 ± 301 ng/mL, the concentration at 60 min ([3]; blood, 60 min, read-out: Avg Conc., blood) was 24.9 ± 31.8 ng/mL and the concentration at 15 min ([3]; brain, read-out: Avg Conc., brain) was 0.439 ng/g. For the same compound, the “Detection of hyperphosphorylated three repeat tau protein in the retina” value [4] was “detected in the retina, producing a detectable fluorescent signal”.
